In US9006451B1, “2-anilinonicotinyl based chalcones useful as potential anticancer agents and process for preparation thereof” (Council of Scientific and Industrial Research, priority 2013, dated 2015):

What was measured:
Assay type in all cases: cell-based
MDA-MB-468 = assay: NCI 60 human tumor cell line screen (SRB): MDA-MB-468; conditions: MDA-MB-468, Breast, 48 hours, read-out: GI50 values (μM conc.)
Experimental: (§1) The in vitro anticancer activity studies for these chalcone analogues were carried out at the National Cancer Institute, USA.
(§2) The chalcone compounds have been tested at NCI, USA, against sixty human tumor cell lines derived from nine cancer types (leukemia, non-small cell lung cancer, colon cancer, CNS cancer, melanoma cancer, ovarian cancer, renal cancer, prostate cancer and breast cancer). For these compounds results are expressed as growth inhibition (GI50) values as per NCI protocol.
(§3) We describe here the development and implementation of a pilot-scale, in vitro, anticancer drug screen utilizing a panel of 60 human tumor cell lines organized into subpanels representing leukemia, melanoma, and cancers of the lung, colon, kidney, ovary, and central nervous system. The ultimate goal of this disease-oriented screen is to facilitate the discovery of new compounds with potential cell line-specific and/or subpanel-specific antitumor activity. In the current screening protocol, each cell line is inoculated onto microtiter plates, then preincubated for 28 hours. Subsequently, test agents are added in five 10-fold dilutions and the culture is incubated for an additional 48 hours. For each test agent, a dose-response profile is generated. End-point determinations of the cell viability or cell growth are performed by in situ fixation of cells, followed by staining with a protein-binding dye, sulforhodamine B (SRB). The SRB binds to the basic amino acids of cellular macromolecules; the solubilized stain is measured spectrophotometrically to determine relative cell growth or viability in treated and untreated cells.

A549/ATCC = assay: NCI 60 human tumor cell line screen (SRB): A549/ATCC; conditions: Non-small cell lung, 48 hours, read-out: GI50 values (μM conc.)
Experimental: as §1, §2, §3

UO-31 = assay: NCI 60 human tumor cell line screen (SRB): UO-31; conditions: UO-31, Renal, 48 hours, read-out: GI50 values (μM conc.)
Experimental: as §1, §2, §3

HOP-92 = assay: NCI 60 human tumor cell line screen (SRB): HOP-92; conditions: HOP-92, Non-small cell lung, 48 hours, read-out: GI50 values (μM conc.)
Experimental: as §1, §2, §3

CAKI-1 = assay: NCI 60 human tumor cell line screen (SRB): CAKI-1; conditions: CAKI-1, Renal, 48 hours, read-out: GI50 values (μM conc.)
Experimental: as §1, §2, §3

HL-60(TB) = assay: NCI 60 human tumor cell line screen (SRB): HL-60(TB); conditions: Leukemia, 48 hours, read-out: GI50 values (μM conc.)
Experimental: as §1, §2, §3

KM12 = assay: NCI 60 human tumor cell line screen (SRB): KM12; conditions: KM12, Colon, 48 hours, read-out: GI50 values (μM conc.)
Experimental: as §1, §2, §3

SR = assay: NCI 60 human tumor cell line screen (SRB): SR; conditions: Leukemia, 48 hours, read-out: GI50 values (μM conc.)
Experimental: as §1, §2, §3

SK-MEL-2 = assay: NCI 60 human tumor cell line screen (SRB): SK-MEL-2; conditions: SK-MEL-2, Melanoma, 48 hours, read-out: GI50 values (μM conc.)
Experimental: as §1, §2, §3

SW-620 = assay: NCI 60 human tumor cell line screen (SRB): SW-620; conditions: SW-620, Colon, 48 hours, read-out: GI50 values (μM conc.)
Experimental: as §1, §2, §3

HOP-62 = assay: NCI 60 human tumor cell line screen (SRB): HOP-62; conditions: HOP-62, Non-small cell lung, 48 hours, read-out: GI50 values (μM conc.)
Experimental: as §1, §2, §3

SF-295 = assay: NCI 60 human tumor cell line screen (SRB): SF-295; conditions: SF-295, CNS, 48 hours, read-out: GI50 values (μM conc.)
Experimental: as §1, §2, §3

HCC-2998 = assay: NCI 60 human tumor cell line screen (SRB): HCC-2998; conditions: HCC-2998, Colon, 48 hours, read-out: GI50 values (μM conc.)
Experimental: as §1, §2, §3

T-47D = assay: NCI 60 human tumor cell line screen (SRB): T-47D; conditions: T47D, Breast, 48 hours, read-out: GI50 values (μM conc.)
Experimental: as §1, §2, §3

NCI-H23 = assay: NCI 60 human tumor cell line screen (SRB): NCI-H23; conditions: NCI-H23, Non-small cell lung, 48 hours, read-out: GI50 values (μM conc.)
Experimental: as §1, §2, §3

SK-MEL-28 = assay: NCI 60 human tumor cell line screen (SRB): SK-MEL-28; conditions: SK-MEL-28, Melanoma, 48 hours, read-out: GI50 values (μM conc.)
Experimental: as §1, §2, §3

BT-549 = assay: NCI 60 human tumor cell line screen (SRB): BT-549; conditions: BT-549, Breast, 48 hours, read-out: GI50 values (μM conc.)
Experimental: as §1, §2, §3

HS 578T = assay: NCI 60 human tumor cell line screen (SRB): HS 578T; conditions: Breast, 48 hours, read-out: GI50 values (μM conc.)
Experimental: as §1, §2, §3

SN12C = assay: NCI 60 human tumor cell line screen (SRB): SN12C; conditions: Renal, 48 hours, read-out: GI50 values (μM conc.)
Experimental: as §1, §2, §3

SNB-75 = assay: NCI 60 human tumor cell line screen (SRB): SNB-75; conditions: SNB-75, CNS, 48 hours, read-out: GI50 values (μM conc.)
Experimental: as §1, §2, §3

PC-3 = assay: NCI 60 human tumor cell line screen (SRB): PC-3; conditions: PC-3, Prostate, 48 hours, read-out: GI50 values (μM conc.)
Experimental: as §1, §2, §3

HCT-15 = assay: NCI 60 human tumor cell line screen (SRB): HCT-15; conditions: HCT-15, Colon, 48 hours, read-out: GI50 values (μM conc.)
Experimental: as §1, §2, §3

U251 = assay: NCI 60 human tumor cell line screen (SRB): U251; conditions: U-251, U251, CNS, 48 hours, read-out: GI50 values (μM conc.)
Experimental: as §1, §2, §3

MOLT-4 = assay: NCI 60 human tumor cell line screen (SRB): MOLT-4; conditions: MOLT-4, Leukemia, 48 hours, read-out: GI50 values (μM conc.)
Experimental: as §1, §2, §3

MDA-MB-435 = assay: NCI 60 human tumor cell line screen (SRB): MDA-MB-435; conditions: MDA-MB-435, Melanoma, 48 hours, read-out: GI50 values (μM conc.)
Experimental: as §1, §2, §3

SNB-19 = assay: NCI 60 human tumor cell line screen (SRB): SNB-19; conditions: SNB-19, CNS, 48 hours, read-out: GI50 values (μM conc.)
Experimental: as §1, §2, §3

HCT-116 = assay: NCI 60 human tumor cell line screen (SRB): HCT-116; conditions: HCT-116, Colon, 48 hours, read-out: GI50 values (μM conc.)
Experimental: as §1, §2, §3

SK-OV-3 = assay: NCI 60 human tumor cell line screen (SRB): SK-OV-3; conditions: SK-OV-3, Ovarian, 48 hours, read-out: GI50 values (μM conc.)
Experimental: as §1, §2, §3

MALME-3M = assay: NCI 60 human tumor cell line screen (SRB): MALME-3M; conditions: Melanoma, 48 hours, read-out: GI50 values (μM conc.)
Experimental: as §1, §2, §3

SMILES | GI50 (MDA-MB-468) [µM] | GI50 (UO-31) [µM] | GI50 (HOP-92) [µM] | GI50 (CAKI-1) [µM] | GI50 (KM12) [µM] | GI50 (SR) [µM] | GI50 (SK-MEL-2) [µM] | GI50 (SW-620) [µM] | GI50 (HOP-62) [µM] | GI50 (SF-295) [µM] | GI50 (HCC-2998) [µM] | GI50 (T-47D) [µM] | GI50 (NCI-H23) [µM] | GI50 (SK-MEL-28) [µM] | GI50 (BT-549) [µM] | GI50 (HS 578T) [µM] | GI50 (SN12C) [µM] | GI50 (SNB-75) [µM] | GI50 (PC-3) [µM] | GI50 (HCT-15) [µM] | further results
COc1cc(C(=O)/C=C/c2cccnc2Nc2ccc(Cl)cc2)cc(OC)c1OC [6ax, (E)-3-(2-(4-Chlorophenylamino)pyridin-3-yl)-1-(3,4,5-trimethoxyphenyl)prop-2-en-1-one] | 1.29 | 1.32 | 0.51 | 1.75 | 1.83 | 0.77 | 2.01 | 0.95 | 1.65 | 1.93 | 1.52 | 1.42 | 1.58 | 1.72 | 1.5 | 3.08 | 1.46 | 1.63 | 1.44 | 1.49 | GI50 (A549/ATCC): 1.63 µM; GI50 (HL-60(TB)): 1.59 µM; GI50 (U251): 1.25 µM; GI50 (MOLT-4): 2.55 µM; GI50 (MDA-MB-435): 1.49 µM; GI50 (SNB-19): 1.52 µM; GI50 (HCT-116): 0.56 µM; GI50 (SK-OV-3): 1.72 µM; GI50 (MALME-3M): 1.91 µM
COc1ccc(Nc2ncccc2/C=C/C(=O)c2cc(OC)c(OC)c(OC)c2)cc1 [6h, (E)-3-(2-(4-Methoxyphenylamino)pyridin-3-yl)-1-(3,4,5-trimethoxyphenyl)prop-2-en-1-one] | 1.15 | 1.12 | 1.59 | 1.52 | 1.69 | 0.46 | 1.47 | 1.2 | 1.78 | 1.85 | 1.68 | 1.67 | 1.72 | 1.37 | 1.58 | 2.68 | 1.56 | 1.15 | 2.82 | 1.66 | GI50 (U251): 1.27 µM; GI50 (MOLT-4): 2.09 µM; GI50 (MDA-MB-435): 1.46 µM; GI50 (SNB-19): 2.14 µM; GI50 (HCT-116): 1.02 µM; GI50 (SK-OV-3): 2.72 µM; GI50 (MALME-3M): 1.4 µM
COc1cc(/C=C/C(=O)c2cccnc2Nc2ccc(F)cc2)cc(OC)c1OC [7f, (E)-1-(2-(4-Fluorophenylamino)pyridin-3-yl)-3-(3,4,5-trimethoxyphenyl)prop-2-en-1-one] | 1.77 | 5.62 | 1.67 | 3.68 | 3.72 | 1.93 | 2.52 | 3.3 | 2.9 | 4.16 | 1.78 | 3.06 | 2.34 | 3.22 | 2.7 | 3.68 | 3.23 | 1.93 | 3.95 | 2.27 | GI50 (A549/ATCC): 2.66 µM; GI50 (HL-60(TB)): 2.4 µM; GI50 (U251): 2.78 µM; GI50 (MOLT-4): 2.75 µM; GI50 (MDA-MB-435): 3.05 µM; GI50 (SNB-19): 3.73 µM; GI50 (HCT-116): 1.54 µM; GI50 (SK-OV-3): 3.1 µM; GI50 (MALME-3M): 6.9 µM
COc1ccc(C(=O)/C=C/c2cccnc2Nc2cc(OC)c(OC)c(OC)c2)cc1 [6z, (E)-1-(4-Methoxyphenyl)-3-(2-(3,4,5-trimethoxyphenylamino)pyridin-3-yl)prop-2-en-1-one] | 0.77 | 1.44 | 2.4 | 2.26 | 0.46 | 0.09 | 7.04 | 0.39 | 2.18 | 2.91 | 1.42 | 2.04 | 4.02 | 3.72 | 2.41 | 6.38 | 1.91 | 2.44 | 1.13 | 0.91 | GI50 (A549/ATCC): 2.15 µM; GI50 (HL-60(TB)): 1.27 µM; GI50 (U251): 1.27 µM; GI50 (MOLT-4): 2.26 µM; GI50 (MDA-MB-435): 0.74 µM; GI50 (SNB-19): 2.87 µM; GI50 (HCT-116): 0.53 µM; GI50 (SK-OV-3): 3.15 µM; GI50 (MALME-3M): 3.24 µM
